Data: patent US10099993B2, “Metabotropic glutamate receptor positive allosteric modulators (PAMS) and uses thereof” (Sanford-Burnham Medical Research Institute, priority 2014, dated 2018)

Experiments:
mGlu2 = mGlu2 (Rattus norvegicus (Rat), UniProt P31421); assay: mGlu2 GIRK thallium flux assay; conditions: for EC50: read-out: mGlu2 PAM EC50, test compound, then EC20 glutamate […] later in the presence of thallium; for EC50 / mGlu2 PAM Max: PAM mode, mean ± SEM, at least three experiments; for Emax: read-out: mGlu2 PAM Max; for mGlu2 PAM Max: % Glutamate Max;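 on all read-outs here: Cell-based assay, rate of fluorescence rise right after thallium plus agonist addition read on a kinetic imaging plate reader, normalized to vehicle and maximal agonist control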
mGlu3 = mGlu3 (Rattus norvegicus (Rat), UniProt P31422); assay: mGlu3 GIRK thallium flux assay; conditions: for EC50: read-out: mGlu3 PAM EC50, test compound, then EC20 glutamate […] later in the presence of thallium; for EC50 / mGlu3 PAM Max: PAM mode, mean ± SEM; for Emax: read-out: mGlu3 PAM Max; for mGlu3 PAM Max: % Glutamate Max;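 on all read-outs here: kinetic fluorescence slope read shortly after thallium plus agonist addition, scaled between vehicle and maximal agonist control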
Sequence of mGlu3 (P31422 23-879): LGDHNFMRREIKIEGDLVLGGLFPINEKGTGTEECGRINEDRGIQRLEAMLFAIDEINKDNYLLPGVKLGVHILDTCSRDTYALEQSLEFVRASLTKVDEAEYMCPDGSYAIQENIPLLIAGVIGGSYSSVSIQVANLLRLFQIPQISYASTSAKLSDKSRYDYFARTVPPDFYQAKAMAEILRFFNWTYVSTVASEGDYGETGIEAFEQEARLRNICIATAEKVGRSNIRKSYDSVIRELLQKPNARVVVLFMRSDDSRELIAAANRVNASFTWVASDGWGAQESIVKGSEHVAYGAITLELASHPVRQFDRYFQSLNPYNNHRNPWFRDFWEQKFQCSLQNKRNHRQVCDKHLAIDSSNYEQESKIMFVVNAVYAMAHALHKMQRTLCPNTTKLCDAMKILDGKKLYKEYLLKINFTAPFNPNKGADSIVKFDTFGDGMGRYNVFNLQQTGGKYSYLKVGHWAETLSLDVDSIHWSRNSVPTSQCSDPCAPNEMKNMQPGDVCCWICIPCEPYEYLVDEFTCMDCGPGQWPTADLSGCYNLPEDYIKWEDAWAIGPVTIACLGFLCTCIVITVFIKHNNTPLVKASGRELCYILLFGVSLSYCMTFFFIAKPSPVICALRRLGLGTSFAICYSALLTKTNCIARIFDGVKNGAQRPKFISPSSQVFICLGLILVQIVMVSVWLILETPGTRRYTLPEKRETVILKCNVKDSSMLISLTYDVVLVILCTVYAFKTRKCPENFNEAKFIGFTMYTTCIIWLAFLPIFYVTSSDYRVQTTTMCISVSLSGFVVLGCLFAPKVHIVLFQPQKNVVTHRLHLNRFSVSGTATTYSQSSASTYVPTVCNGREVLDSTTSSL

Sequence of mGlu2 (P31421 19-872): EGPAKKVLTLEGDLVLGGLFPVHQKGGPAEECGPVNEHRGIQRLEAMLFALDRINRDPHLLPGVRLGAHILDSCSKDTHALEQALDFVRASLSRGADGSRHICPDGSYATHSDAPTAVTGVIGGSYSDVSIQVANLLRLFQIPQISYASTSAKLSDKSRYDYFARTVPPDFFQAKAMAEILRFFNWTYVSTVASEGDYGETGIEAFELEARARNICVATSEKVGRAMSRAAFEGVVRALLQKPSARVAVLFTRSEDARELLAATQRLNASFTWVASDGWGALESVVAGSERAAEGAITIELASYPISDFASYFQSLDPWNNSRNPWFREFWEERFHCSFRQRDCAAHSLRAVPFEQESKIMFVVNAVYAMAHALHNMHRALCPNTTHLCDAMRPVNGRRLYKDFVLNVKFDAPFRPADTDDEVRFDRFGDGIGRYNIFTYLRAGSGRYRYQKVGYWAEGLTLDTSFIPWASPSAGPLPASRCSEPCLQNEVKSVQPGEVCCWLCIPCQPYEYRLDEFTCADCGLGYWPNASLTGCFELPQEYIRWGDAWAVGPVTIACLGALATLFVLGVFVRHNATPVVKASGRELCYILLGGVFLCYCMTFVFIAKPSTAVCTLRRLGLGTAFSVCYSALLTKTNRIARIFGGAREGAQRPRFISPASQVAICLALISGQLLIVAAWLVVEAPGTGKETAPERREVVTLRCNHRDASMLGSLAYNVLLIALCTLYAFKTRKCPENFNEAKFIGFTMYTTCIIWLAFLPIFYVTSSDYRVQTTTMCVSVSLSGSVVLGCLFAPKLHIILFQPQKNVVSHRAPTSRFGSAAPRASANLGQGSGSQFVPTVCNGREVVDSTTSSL

## Cc1c(OCc2cccc(-c3cc(C(=O)O)cc([N+](=O)[O-])c3)c2)ccc(C(=O)CC(C)(C)C)c1O [compound 146, 3′-((4-(3,3-Dimethylbutanoyl)-3-hydroxy-2-methylphenoxy)methyl)-5-nitro-[1,1′-biphenyl]-3-carboxylic acid]
mGlu2
  EC50: 0.564 ± 0.156 µM
  Emax: 98.7 ± 5.9%
mGlu3
  EC50: 2.13 ± 0.812 µM
  Emax: 74.5 ± 11.7%

## Cc1c(OCc2cccc(-c3ccc(Cl)c(C(=O)O)c3)c2)ccc(C(=O)CC2CCCC2)c1C [compound 171]
mGlu2
  mGlu2 PAM Max: 12.3 ± 1.2%
  EC50: > 30 µM
mGlu3
  mGlu3 PAM Max: 10.7 ± 1.0%
  EC50: > 30 µM

## CC(C)(C)CC(=O)c1ccc(OCc2cccc(-c3cccc(C(=O)O)c3)c2)c(Br)c1O [Compound 193, 3′-((2-Bromo-4-(3,3-dimethylbutanoyl)-3-hydroxyphenoxy)methyl)-[1,1′-biphenyl]-3-carboxylic acid]
mGlu2
  Emax: 79.5 ± 20.8%
mGlu3
  Emax: 74 ± 9.5%

## Cc1c(OCCCCOc2cccc(C(=O)O)c2)ccc(C(=O)CC2CCCC2)c1C [Compound 23, 3-(4-(4-(2-Cyclopentylacetyl)-2,3-dimethylphenoxy)butoxy)benzoic acid]
mGlu2
  EC50: > 30 µM
mGlu3
  EC50: > 30 µM

## Cc1c(OCc2cccc(-c3cc(C(=O)O)ccc3F)c2)ccc(C(=O)CC(C)(C)C)c1O [compound 139, 3′-((4-(3,3-Dimethylbutanoyl)-3-hydroxy-2-methylphenoxy)methyl)-6-fluoro-[1,1′-biphenyl]-3-carboxylic acid]
mGlu2
  EC50: 0.436 ± 0.084 µM
  Emax: 88.2 ± 5.1%
mGlu3
  EC50: 1.1 ± 0.33 µM
  Emax: 85.6 ± 5.5%

## Cc1c(OCc2cccc(-c3ccc(Cl)c(C(=O)O)c3)c2)ccc(C(=O)CC(C)C)c1O [compound 172]
mGlu2
  mGlu2 PAM Max: 73.7 ± 1.2%
  EC50: 0.763 ± 0.04 µM
mGlu3
  EC50: > 10 µM

## COc1ccc(-c2noc(=S)[nH]2)cc1OCCCCOc1ccc(C(=O)CC(C)(C)C)c(O)c1C [compound 99, 1-(2-Hydroxy-4-(4-(2-methoxy-5-(5-thioxo-4,5-dihydro-1,2,4-oxadiazol-3-yl)phenoxy)butoxy)-3-methylphenyl)-3,3-dimethylbutan-1-one]
mGlu2
  EC50: 1.03 ± 0.07 µM
  Emax: 81%
mGlu3
  EC50: 1.15 ± 0.307 µM
  Emax: 63.6 ± 5%

## Cc1c(OCc2cccc(-c3ccc(C(=O)O)cc3)c2)ccc(C(=O)CC(C)(C)C)c1O [compound 132, 3′-((4-(3,3-Dimethylbutanoyl)-3-hydroxy-2-methylphenoxy)methyl)-[1,1′-biphenyl]-4-carboxylic acid]
mGlu2
  EC50: 0.561 ± 0.063 µM
  Emax: 90.5 ± 13.8%
mGlu3
  EC50: 1.64 ± 0.487 µM
  Emax: 57.5 ± 20.9%

## CC(C)(C)CC(=O)c1ccc(OCc2cccc(-c3cccc(C(=O)O)c3)c2)c(I)c1O [Compound 192, 3′-((4-(3,3-Dimethylbutanoyl)-3-hydroxy-2-iodophenoxy)methyl)-[1,1′-biphenyl]-3-carboxylic acid]
mGlu2
  Emax: 82 ± 5.1%
mGlu3
  Emax: 62.6 ± 9.7%

## Cc1c(OCCCCOCc2cccc(-c3cccc(C(=O)O)c3)c2)ccc(C(=O)CC(C)(C)C)c1O [Compound 187, 3′-((4-(4-(3,3-Dimethylbutanoyl)-3-hydroxy-2-methylphenoxy)butoxy)methyl)-[1,1′-biphenyl]-3-carboxylic acid]
mGlu2
  EC50: 1.57 ± 0.297 µM
  Emax: 93.4 ± 3.4%
mGlu3
  EC50: 3.07 ± 0.632 µM
  Emax: 74.1 ± 7.8%

## Cc1c(OCCCCOc2ccccn2)ccc(C(=O)CC2CCCC2)c1O [Compound 186]
mGlu2
  EC50: > 10 µM
mGlu3
  EC50: > 30 µM

## Cc1c(OCc2cccc(COc3ccc(C(=O)O)cc3)c2)ccc(C(=O)CC2CCCC2)c1O [compound 126]
mGlu2
  EC50: > 10 µM
mGlu3
  EC50: > 30 µM

## Cc1c(OCc2cccc(-c3cccc(C(=O)O)c3)c2)ccc(C(=O)CCC(C)(C)C)c1O [compound 148]
mGlu2
  mGlu2 PAM Max: 100 ± 3.9%
  EC50: 2.11 ± 0.215 µM
mGlu3
  mGlu3 PAM Max: 101.7 ± 2.7%
  EC50: 2.58 ± 0.272 µM

## Cc1c(OCc2cc(-c3cccc(C(=O)O)c3)cs2)ccc(C(=O)CC(C)(C)C)c1O [compound 162, 3-(5-((4-(3,3-Dimethylbutanoyl)-3-hydroxy-2-methylphenoxy)methyl)thiophen-3-yl)benzoic acid]
mGlu2
  Emax: 102 ± 3.5%
mGlu3
  Emax: 106 ± 6.4%

## Cc1c(OCCCCOc2cccc(C(=O)O)c2)ccc(C(=O)CC(C)C)c1C [Compound 22, 3-(4-(2,3-Dimethyl-4-(3-methylbutanoyl)phenoxy)butoxy)benzoic acid]
mGlu2
  EC50: > 30 µM
mGlu3
  EC50: > 30 µM

## COc1ccc(C(=O)Nc2ccccn2)cc1OCCCCOc1ccc(C(=O)CC(C)(C)C)c(O)c1C [compound 106, 3-(4-(4-(3,3-Dimethylbutanoyl)-3-hydroxy-2-methylphenoxy)butoxy)-4-methoxy-N-(pyridin-2-yl)benzamide]
mGlu2
  Emax: 74.8 ± 5.9%
mGlu3
  Emax: 97.4 ± 9.4%

## CCCC(=O)c1ccc(OCc2cccc(-c3cccc(C(=O)O)c3)c2)c(C)c1O [compound 130, 3′-((4-Butyryl-3-hydroxy-2-methylphenoxy)methyl)-[1,1′-biphenyl]-3-carboxylic acid]
mGlu2
  EC50: 0.142 ± 0.029 µM
  Emax: 92.9 ± 10.7%
mGlu3
  EC50: 1.68 ± 0.753 µM
  Emax: 81 ± 14.8%

## Cc1c(OCc2cccc(-c3cc(F)cc(C(=O)O)c3)c2)ccc(C(=O)CC(C)(C)C)c1O [compound 136, 3′-((4-(3,3-Dimethylbutanoyl)-3-hydroxy-2-methylphenoxy)methyl)-5-fluoro-[1,1′-biphenyl]-3-carboxylic acid]
mGlu2
  EC50: 0.308 ± 0.04 µM
  Emax: 93.3 ± 2.1%
mGlu3
  EC50: 0.496 ± 0.086 µM
  Emax: 77.4 ± 7.1%

## Cc1c(OCc2cccc(-c3cncc(C(=O)O)c3)c2)ccc(C(=O)CC(C)(C)C)c1O [Compound 179, 5-(3-((4-(3,3-Dimethylbutanoyl)-3-hydroxy-2-methylphenoxy)methyl)phenyl)nicotinic acid]
mGlu2
  EC50: 0.848 ± 0.009 µM
  Emax: 100 ± 2.9%
mGlu3
  EC50: 1.01 ± 0.02 µM
  Emax: 102 ± 3.5%

## COC(=O)CCc1cc(OCCCCOc2ccc(C(=O)CC(C)C)c(O)c2C)ccc1O [compound 85]
mGlu2
  EC50: > 10 µM
mGlu3
  EC50: > 30 µM

## Cc1c(OCc2cccc(COc3ccc(C(=O)O)cc3)c2)ccc(C(=O)CC2CCCC2)c1C [compound 124]
mGlu2
  EC50: > 30 µM
mGlu3
  EC50: > 30 µM

## Cc1c(OCc2cccc(-c3ccccc3C(=O)O)c2)ccc(C(=O)CC(C)(C)C)c1O [compound 138, 3′-((4-(3,3-Dimethylbutanoyl)-3-hydroxy-2-methylphenoxy)methyl)-[1,1′-biphenyl]-2-carboxylic acid]
mGlu2
  EC50: 0.643 ± 0.137 µM
  Emax: 42.1 ± 7.1%
mGlu3
  EC50: > 10 µM
  Emax: 23.5 ± 4.6%

## Cc1c(OCCCCOc2ccc(C(=O)O)cc2)ccc(C(=O)CC(C)C)c1C [Compound 18, 4-(4-(2,3-Dimethyl-4-(3-methylbutanoyl)phenoxy)butoxy)benzoic acid]
mGlu2
  EC50: > 30 µM
mGlu3
  EC50: > 30 µM

## Cc1c(OCc2cccc(COc3ccc(C#N)cc3)c2)ccc(C(=O)CC(C)C)c1O [compound 118]
mGlu2
  EC50: > 30 µM
mGlu3
  EC50: > 30 µM

## Cc1c(OCc2cccc(COc3ccc(C(=O)O)cc3)c2)ccc(C(=O)CC(C)C)c1C [compound 123]
mGlu2
  EC50: > 30 µM
mGlu3
  EC50: > 30 µM

## Cc1c(OCc2cccc(-c3ccc(Cl)c(C(=O)O)c3)c2)ccc(C(=O)CC(C)C)c1C [compound 170]
mGlu2
  mGlu2 PAM Max: 70.2 ± 2.9%
  EC50: 0.815 ± 0.05 µM
mGlu3
  EC50: > 30 µM

## Cc1c(OCCCCOc2ccccn2)ccc(C(=O)CC(C)C)c1C [Compound 183]
mGlu2
  EC50: > 10 µM
mGlu3
  EC50: > 30 µM

## Cc1c(OCc2cccc(-c3cccc(C(=O)O)c3)c2)ccc(C(=O)CC(C)(C)C)c1O [compound 127, 3′-((4-(3,3-Dimethylbutanoyl)-3-hydroxy-2-methylphenoxy)methyl)-[1,1′-biphenyl]-3-carboxylic acid]
mGlu2
  EC50: 0.219 ± 0.043 µM
  Emax: 91.1 ± 2.6%
mGlu3
  EC50: 0.343 ± 0.04 µM
  Emax: 104 ± 2.4%

## CCCc1c(OCCCCOc2ccc(C(=O)O)cc2C)ccc(C(C)=O)c1O [Compound 191, 4-(4-(4-Acetyl-3-hydroxy-2-propylphenoxy)butoxy)-3-methylbenzoic acid]
mGlu2
  Emax: 43.8 ± 5.4%
mGlu3
  Emax: 0.1 ± 7.7%

## Cc1c(OCCCCSc2ccncc2)ccc(C(=O)CC2CCCC2)c1C [Compound 188]
mGlu2
  EC50: > 30 µM
mGlu3
  EC50: > 30 µM

## Cc1c(OCc2cccc(-c3cccc(-c4noc(=O)[nH]4)c3)c2)ccc(C(=O)CC(C)(C)C)c1O [compound 157, 3-(3′-((4-(3,3-Dimethylbutanoyl)-3-hydroxy-2-methylphenoxy)methyl)-[1,1′-biphenyl]-3-yl)-1,2,4-oxadiazol-5(4H)-one]
mGlu2
  Emax: 111 ± 6.6%
mGlu3
  Emax: 105 ± 2.8%

## Cc1c(OCc2cc(-c3cccc(C(=O)O)c3)ccn2)ccc(C(=O)CC(C)(C)C)c1O [compound 153, 3-(2-((4-(3,3-Dimethylbutanoyl)-3-hydroxy-2-methylphenoxy)methyl)pyridin-4-yl)benzoic acid]
mGlu2
  EC50: 0.209 ± 0.003 µM
  Emax: 106 ± 3.9%
mGlu3
  EC50: 0.158 ± 0.002 µM
  Emax: 107 ± 5.5%

## Cc1c(OCc2cccc(-c3cccc(C(=O)O)c3)c2)ccc(C(=O)CC(C)C)c1O [compound 137, 3′-((3-Hydroxy-2-methyl-4-(3-methylbutanoyl)phenoxy)methyl)-[1,1′-biphenyl]-3-carboxylic acid]
mGlu2
  EC50: 0.181 ± 0.028 µM
  Emax: 85.8 ± 3.7%
mGlu3
  EC50: 0.642 ± 0.151 µM
  Emax: 76.8 ± 8%

## Cc1c(OCc2cccc(COc3ccc(C(=O)O)cc3)c2)ccc(C(=O)CC(C)C)c1O [compound 125]
mGlu2
  mGlu2 PAM Max: 82.7 ± 7.2%
  EC50: 0.238 ± 0.051 µM
mGlu3
  mGlu3 PAM Max: 13.9 ± 3.1%
  EC50: > 30 µM

## COc1ccc(C(=O)NC(C)(C)C)cc1OCCCCOc1ccc(C(=O)CC(C)(C)C)c(O)c1C [compound 108, N-(tert-Butyl)-3-(4-(4-(3,3-dimethylbutanoyl)-3-hydroxy-2-methylphenoxy)butoxy)-4-methoxybenzamide]
mGlu2
  EC50: > 10 µM
  Emax: 38.6 ± 1.1%
mGlu3
  EC50: > 30 µM
  Emax: 33.4 ± 5.3%
